Assay results: patent US5128366A, “Pyrrole derivatives” (Shinogi & Co., Ltd., priority 1990, dated 1992)

biological target: T1, HMG-CoA reductase (Rattus norvegicus, UniProt P51639); experiment: HMG-CoA reductase inhibitory effect in rat liver microsome, [3-14C]HMG-CoA, TLC and scintillation counting; assay type: biochemical; details: comparative activity, Mevinolin (sodium salt) as reference drug = 100, sodium salt of the test compound, 37° C., 30 minutes
T1 construct: from tissue; host or cells: liver microsomes of Sprague-Dawley rats fed 2% cholestyramine for 2 weeks
T1 sequence (P51639 1-887): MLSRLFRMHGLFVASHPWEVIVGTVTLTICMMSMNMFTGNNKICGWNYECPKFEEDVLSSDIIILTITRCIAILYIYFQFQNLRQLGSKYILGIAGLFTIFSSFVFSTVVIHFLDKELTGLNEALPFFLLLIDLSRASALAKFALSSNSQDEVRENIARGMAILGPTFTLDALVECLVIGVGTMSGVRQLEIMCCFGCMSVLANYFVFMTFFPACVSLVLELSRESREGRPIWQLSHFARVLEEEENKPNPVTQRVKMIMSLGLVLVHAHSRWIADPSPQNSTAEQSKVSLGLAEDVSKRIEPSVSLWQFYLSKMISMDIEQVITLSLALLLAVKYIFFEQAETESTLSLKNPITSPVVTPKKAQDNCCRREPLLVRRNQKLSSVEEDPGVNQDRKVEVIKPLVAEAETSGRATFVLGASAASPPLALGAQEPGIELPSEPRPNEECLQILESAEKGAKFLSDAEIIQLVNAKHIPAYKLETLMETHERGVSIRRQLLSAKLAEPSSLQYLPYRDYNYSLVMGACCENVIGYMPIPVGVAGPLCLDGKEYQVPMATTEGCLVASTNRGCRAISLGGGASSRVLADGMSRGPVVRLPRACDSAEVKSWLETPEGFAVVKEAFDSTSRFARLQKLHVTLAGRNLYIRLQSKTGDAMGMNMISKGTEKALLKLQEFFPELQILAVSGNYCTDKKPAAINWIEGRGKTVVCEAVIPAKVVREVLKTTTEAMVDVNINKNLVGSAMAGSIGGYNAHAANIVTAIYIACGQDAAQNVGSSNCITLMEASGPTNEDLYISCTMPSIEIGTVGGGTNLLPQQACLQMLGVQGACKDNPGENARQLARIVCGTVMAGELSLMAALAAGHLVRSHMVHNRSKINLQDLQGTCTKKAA
Protocol: (1) Preparation of Rat Liver Microsome
Sprague-Dawley rats, which were in free access to ordinary diets containing 2% cholestyramine and water for 2 weeks, were used for the preparation of rat liver microsome, which were then purified according to the manner by Kuroda et al., Biochem. Biophys. Act, 486, 70 (1977). The microsomal fraction obtained by centrifugation at 105000×g was washed once with a buffered solution containing 15 mM nicotinamide and 2 mM magnesium chloride (in a 100 mM potassium phosphate buffer, pH 7.4). It was homogenized with a buffer containing nicotinamide and magnesium chloride at the same weight as the liver employed. The thus obtained homogenate was cooled down to and kept at -80° C.
(2) Measurement of the HMG-CoA Reductase Inhibitory Activities
The rat liver microsome (100 μl), which was preserved at -80° C., was […] at 0° C. and diluted with 0.7 ml of a cold potassium phosphate buffer (100 mM, pH 7.4 ). This was mixed with 0.8 ml of 50 mM EDTA (buffered with the aforementioned potassium phosphate buffer) and 0.4 ml of 100 mM dithiothreitol solution (buffered with the aforementioned potassium phosphate buffer), and the mixture was kept at 0° C. The microsome solution, 1.675 ml, was mixed with 670 μl of 25 mM NADPH (buffered with the aforementioned potassium phosphate buffer), and the solution was added to the solution of 0.5 mM [3^-14 C]HMG-CoA (3 mCi/mmol). Potassium phosphate buffer of sodium salt of the test compound 5 μl is added to the mixture of microsome and HMG-CoA 45 μl, and the resulting mixture was incubated at 37° C. for 30 minutes and cooled. After termination of the reaction by addition of 10 μl of 2N-HCl, the mixture was incubated again at 37° C. for 15 minutes and then 30 μl of this mixture was applied to thin-layer chromatography with silica gel of 0.5 mm in thickness (Merck AG, Art 5744). The chromatograms were developed in toluene/acetone (1/1) and the sections, whose Rf value was between 0.45 to 0.6, were scraped. The obtained products were put into a vial containing 8 ml of scintillator to measure specific radio-activity with a scintillation counter.

| Compound | HMG-CoA reductase inhibitory activities |
| --- | --- |
| CC(C)c1c(/C=C/[C@@H](O)C[C@@H](O)CC(=O)O)c(-c2ccc(F)cc2)c(-c2ccc(F)cc2)n1S(C)(=O)=O (relative stereo) [Ia-17, 7-.upsilon.4,5-Di-(4-fluorophenyl)-2-isopropyl-1-(methylsulfonyl)-pyrrol-3-yl]-(3R*,5S*)-dihydroxy-(E)-6-heptenoic acid] | 293 |
| CCS(=O)(=O)n1c(C)c(-c2ccc(F)cc2)c(/C=C/[C@@H](O)C[C@@H](O)CC(=O)O)c1C(C)C (relative stereo) [Ia-18, 7-[4-(4-Fluorophenyl)-2-isopropyl-5-methyl-(1-ethylsulfonyl)pyrrol-3-yl]-(3R*,5S*)-dihydroxy-(E)-6-heptenate] | 228 |
| CC(C)c1c(/C=C/[C@@H](O)C[C@@H](O)CC(=O)O)c(-c2ccc(F)cc2)cn1S(C)(=O)=O (relative stereo) [Ia-10] | 263 |

Other lines, results leading:

| HMG-CoA reductase inhibitory activities | Compound |
| --- | --- |
| 105 | Cc1c(-c2ccc(F)cc2)c(/C=C/[C@@H](O)C[C@@H](O)CC(=O)O)c(C(C)C)n1S(=O)(=O)Cc1ccccc1 (relative stereo) [Ia-19, 7-[4-(4-Fluorophenyl)-2-isopropyl-5-methyl-(1-benzylsulfonyl)-pyrrol-3-yl]-(3R*,5S*)-dihydroxy-(E)-6-heptenate] |
| 418 | Cc1c(-c2ccc(F)cc2)c(/C=C/[C@@H](O)C[C@@H](O)CC(=O)O)c(C(C)C)n1S(C)(=O)=O [Id-2, (+) Sodium 7-[4-(4-fluorophenyl)-2-isopropyl-5-methyl-(1-methylsulfonyl)pyrrol-3-yl]-(3R,5S)-dihydroxy-(E)-6-heptenate] |
| 100 | CC[C@H](C)C(=O)O[C@H]1C[C@@H](C)C=C2C=C[C@H](C)[C@H](CC[C@@H](O)C[C@@H](O)CC(=O)O)[C@H]21 [Mevinolin Na, Mevinolin, reference compound] |
